The values below come from patent publication US11051515B2, “3-acyl-benzamides and their use as herbicides” (Bayer Aktiengesellschaft, priority 2017, dated 2021).

Assay [1] has as its system VIOTR. As to the kind of experiment: Pre-emergence action against VIOTR. Particulars: for Herbicidal efficacy against VIOTR: 20 g of a.i./ha. In kind it is in vivo, Viola tricolor. An outline of the steps:
(§1)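 Seeds sown in sandy loam in wood-fiber pots and covered with soil. Greenhouse growth; visual damage scored after 3 weeks versus untreated controls (100% = dead, 0% = like control).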

Assay [2] concerns ECHCG. As to the kind of experiment: Pre-emergence action against ECHCG. In kind it is in vivo, Echinochloa crus-galli. Particulars: pre-emergence, dosage 320 g/ha, scored visually after 3 weeks vs untreated controls. Put shortly: as §1
Assay [3] has as its system STEME. As to the kind of experiment: Pre-emergence action against STEME. In kind it is in vivo, Stellaria media. The note with it: Stellaria media, 504 h; Dosage 320 g/ha, pre-emergence. An outline of the steps:
as §1

Assay [4] has as its system AMARE. The experiment in a line: Pre-emergence action against AMARE. In kind it is in vivo, Amaranthus retroflexus. An outline of the steps: as §1
In assay [5] the test system is ABUTH. The experiment in a line: Pre-emergence action against ABUTH. In kind it is in vivo, Abutilon theophrasti. An outline of the steps:
as §1

Assay [6] has as its system STEME. The experiment in a line: Post-emergence action against STEME. The note with it: post-emergence, dosage 80 g/ha. In kind it is in vivo, Stellaria media. An outline of the steps:
(§2)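 Post-emergence foliar spray on greenhouse plants at the one-leaf stage, using wettable-powder or emulsion-concentrate formulations in water (600 to […], plus 0.2% wetting agent). Damage scored by eye roughly 3 weeks later against untreated plants: 0% = like control, 100% = dead.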

For assay [7], the system named is CYPES. As to the kind of experiment: Pre-emergence action against CYPES. In kind it is in vivo, Cyperus esculentus. The note with it: pre-emergence, dosage 320 g/ha, scored visually after 3 weeks vs untreated controls. Put shortly:
as §1

Assay [8] concerns VERPE. As to the kind of experiment: Pre-emergence action against VERPE. In kind it is in vivo, Veronica persica. The note with it: Dosage 320 g/ha, pre-emergence. Put shortly:
as §1

Assay [9] has as its system SETVI. The experiment in a line: Pre-emergence action against SETVI. In kind it is in vivo, Setaria viridis. Particulars: pre-emergence, dosage 320 g/ha, scored visually after 3 weeks vs untreated controls. An outline of the steps:
as §1

Assay [10] concerns LOLRI. The experiment in a line: Pre-emergence action against LOLRI. In kind it is in vivo, Lolium rigidum. The note with it: Lolium rigidum, 504 h, dosage 320 g/ha, scored visually after 3 weeks vs untreated controls, read-out: Pre-emergence action against LOLRI (herbicidal activity). The text has this: Seeds of monocotyledonous and dicotyledonous weed plants and crop plants are laid out in sandy loam soil in wood-fiber pots and covered with soil. The compounds of the invention, formulated in the form of wettable powders (WP) or as emulsion concentrates (EC), are then applied to the surface of the covering soil in the form of an aqueous suspension or emulsion at a water application rate equating to […], with addition of 0.2% wetting agent. After the treatment, the pots are placed in a greenhouse and kept under good growth conditions for the trial plants. The damage to the test plants is scored visually after a test period of 3 weeks by comparison with untreated controls (herbicidal activity in percent (%): 100% activity=the plants have died, 0% activity=like control plants).

Assay [11] deals with MATIN. The experiment in a line: Pre-emergence action against MATIN. In kind it is in vivo, Matricaria inodora. Put shortly:
as §1

Assay [12] has as its system AVEFA. As to the kind of experiment: Post-emergence action against AVEFA. In kind it is in vivo, Avena fatua. The note with it: post-emergence, dosage 80 g/ha, visual assessment about 3 weeks after treatment vs untreated controls. An outline of the steps: as §2
Assay [13] relates to ECHCG. The experiment in a line: Post-emergence action against ECHCG. In kind it is in vivo, Echinochloa crus-galli. The note with it: post-emergence, dosage 80 g/ha, visual assessment about 3 weeks after treatment vs untreated controls. Put shortly: as §2
Assay [14] deals with ABUTH. As to the kind of experiment: Post-emergence action against ABUTH. In kind it is in vivo, Abutilon theophrasti. Put shortly:
as §2

For assay [15], the system named is PHBPU. As to the kind of experiment: Post-emergence action against PHBPU. In kind it is in vivo, Pharbitis purpurea. Particulars: post-emergence, dosage 80 g/ha. Put shortly: as §2
Assay [16] concerns VIOTR. As to the kind of experiment: Post-emergence action against VIOTR. In kind it is in vivo, Viola tricolor. An outline of the steps: as §2
For assay [17], the system named is CYPES. The experiment in a line: Post-emergence action against CYPES. In kind it is in vivo, Cyperus esculentus. Put shortly: as §2
Assay [18] has as its system VERPE. The experiment in a line: Post-emergence action against VERPE. In kind it is in vivo, Veronica persica. Particulars: dosage 80 g/ha. Put shortly: as §2
In assay [19] the test system is ALOMY. The experiment in a line: Post-emergence action against ALOMY. In kind it is in vivo, Alopecurus myosuroides. Put shortly:
as §2

In assay [20] the test system is SETVI. The experiment in a line: Post-emergence action against SETVI. In kind it is in vivo, Setaria viridis. Particulars: post-emergence, dosage 80 g/ha, visual assessment about 3 weeks after treatment vs untreated controls. An outline of the steps: as §2
Assay [21] deals with AMARE. As to the kind of experiment: Post-emergence action against AMARE. In kind it is in vivo, Amaranthus retroflexus. The note with it: post-emergence, dosage 80 g/ha, visual assessment about 3 weeks after treatment vs untreated controls. An outline of the steps: as §2
The subject of assay [22] is ALOMY. As to the kind of experiment: Pre-emergence action against ALOMY. Particulars: dosage 320 g/ha; pre-emergence; scored visually after 3 weeks vs untreated controls; 100% = plants have died, 0% = like control plants. In kind it is in vivo, Alopecurus myosuroides. An outline of the steps: as §1
The test system of assay [23] is PHBPU. As to the kind of experiment: Pre-emergence action against PHBPU. In kind it is in vivo, Pharbitis purpurea. Particulars: Dosage 320 g/ha, pre-emergence. An outline of the steps:
as §1

For assay [24], the system named is AVEFA. As to the kind of experiment: Pre-emergence action against AVEFA. In kind it is in vivo, Avena fatua. The note with it: dosage 320 g/ha, scored visually after 3 weeks vs untreated controls. Put shortly:
as §1

The test system of assay [25] is POLCO. As to the kind of experiment: Post-emergence action against POLCO. In kind it is in vivo, Polygonum convolvulus. An outline of the steps: as §2
The subject of assay [26] is POLCO. As to the kind of experiment: Pre-emergence action against POLCO. In kind it is in vivo, Polygonum convolvulus. Particulars: Dosage 320 g/ha, pre-emergence. An outline of the steps:
as §1

The subject of assay [27] is MATIN. As to the kind of experiment: Post-emergence action against MATIN. In kind it is in vivo, Matricaria inodora. Put shortly:
as §2

[28] abbreviates: Table V20, post-emergence, 80 g of a.i./ha.
Setting [29] is: post-emergence, dosage 80 g/ha, visual assessment about 3 weeks after treatment vs untreated controls.
Where [30] appears, read: Table V17, post-emergence, 5 g of a.i./ha.
[31] abbreviates: pre-emergence, dosage 320 g/ha, scored visually after 3 weeks vs untreated controls.
Setting [32] is: Table V7, pre-emergence, 20 g of a.i./ha.

The structures appear in SMILES notation.

Regarding `Cn1nnnc1NC(=O)c1ccc(C(F)(F)F)c(C(=O)C(C)(C)C)c1Cl` [1-143], the pest or weed control at 320 g/ha stood at 100% in assay [1] (Viola tricolor, 504 h, Dosage 320 g/ha, pre-emergence); 100% in assay [2] (Echinochloa crus-galli, 504 h, read-out: Pre-emergence action against ECHCG (herbicidal activity)); 100% in assay [3]; 100% in [4] (Amaranthus retroflexus, 504 h, pre-emergence, dosage 320 g/ha, scored visually after 3 weeks vs untreated controls, read-out: Pre-emergence action against AMARE (herbicidal activity)); 100% in [5] (Abutilon theophrasti, 504 h, pre-emergence, dosage 320 g/ha, scored visually after 3 weeks vs untreated controls, read-out: Pre-emergence action against ABUTH (herbicidal activity)); 90% in assay [7] (Cyperus esculentus, 504 h, read-out: Pre-emergence action against CYPES (herbicidal activity)). In addition, the pest or weed control at 320 g/ha was found to be 100% in [8] (Veronica persica, 504 h); 90% in assay [9] (Setaria viridis, 504 h, read-out: SETVI (Table B8, pre-emergence herbicidal activity)); 80% in [10]; 100% in assay [11] (Tripleurospermum inodorum, 504 h, Dosage 320 g/ha, pre-emergence). This compound also gave a pest or weed control at 80 g/ha in assay [6] (Stellaria media, 504 h) of 100%.
`CCn1nnnc1NC(=O)c1ccc(S(C)(=O)=O)c(C(=O)C2CC2)c1C` [2-9]: the “Post-emergence action against AVEFA (herbicidal action in percent)” value in assay [12] was 100%. Further, in assay [13], the “Post-emergence action against ECHCG (herbicidal action in percent)” value is recorded as 90%. In addition, in [1] (Dosage 320 g/ha, pre-emergence), the “Pre-emergence action against VIOTR” value was determined as 100%. For the same compound, the “Herbicidal efficacy against VIOTR” value in assay [1] (Table V7, pre-emergence) was 90; in [1] (Table V13, pre-emergence), 90; in assay [16] (setting [30]), 100. Further, the “Pre-emergence action against ECHCG (herbicidal activity)” value in [2] came out at 100%. For the same compound, the “Herbicidal efficacy against ABUTH” value is reported as 90 in [14] (setting [28]) and 100 in assay [5] (setting [32]). Moreover, the “Post-emergence action against ABUTH (herbicidal action in percent)” value in assay [14] (setting [29]) is recorded as 90%. In [15], the “Post-emergence action against PHBPU” value is on record as 100. Also, the “Post-emergence action against VIOTR” value in assay [16] (post-emergence, dosage 80 g/ha) was 100. In addition, the “Herbicidal efficacy against CYPES” value in assay [17] (setting [28]) came out at 90. Also, the “Post-emergence action against CYPES (herbicidal action in percent)” value in [17] (setting [29]) is 90%. The “Herbicidal efficacy against AMARE” value in assay [4] (Table V13, pre-emergence, 20 g of a.i./ha) is given as 100. Further, the “Pre-emergence action against AMARE (herbicidal activity)” value in assay [4] (setting [31]) was found to be 100%. In addition, the “Post-emergence action against VERPE” value in assay [18] is reported as 100. The “Post-emergence action against ALOMY” value in assay [19] (Dosage 80 g/ha, post-emergence) worked out at 90%. For the same compound, in assay [19] (setting [28]), the “Herbicidal efficacy against ALOMY” value came to 90. Further, the “Pre-emergence action against ABUTH (herbicidal activity)” value in assay [5] (setting [31]) was found to be 100%. Moreover, in [20], the “Post-emergence action against SETVI (herbicidal action in percent)” value came to 90%. In addition, the “Post-emergence action against AMARE (herbicidal action in percent)” value in assay [21] stood at 100%. The “Post-emergence action against STEME” value in assay [6] was found to be 100. Besides, the “Pre-emergence action against ALOMY (herbicidal activity in percent)” value in assay [22] was determined as 90%. In assay [7], the “Pre-emergence action against CYPES (herbicidal activity)” value is on record as 90%. The “Pre-emergence action against VERPE” value in [8] came to 100%. Besides, the “Pre-emergence action against PHBPU” value in [23] is 90%. Also, the “Pre-emergence action against AVEFA (herbicidal activity)” value in assay [24] is reported as 100%. The “SETVI (Table B8, pre-emergence herbicidal activity)” value in [9] turned out to be 100%. Also, in assay [25] (setting [28]), the “Herbicidal efficacy against POLCO” value stood at 100. Besides, the “Post-emergence action against POLCO” value in [25] (post-emergence, dosage 80 g/ha) amounted to 100. Also, in [26], the “Pre-emergence action against POLCO” value was 80%. Besides, the “Pre-emergence action against MATIN” value in assay [11] (Dosage 320 g/ha, pre-emergence) is given as 100%. The figures for the “Herbicidal efficacy against MATIN” value in assay [11] (setting [32]) and in assay [27] (setting [30]) were 80 and 90, respectively. In addition, the “Post-emergence action against MATIN (herbicidal action in percent)” value in [27] (setting [29]) amounted to 100%.
